{"source": "paper PMC5028780", "about": "“Receptor and transporter binding and activity profiles of albiflorin extracted from Radix paeoniae Alba” (Scientific Reports, 2016)", "key": {"μ": {"target": "μ (Homo sapiens, UniProt P35372)", "assay": "CNS receptor binding, opioid μ", "settings": "CHO cell line, [3H]-dipnorphine(1)", "method": "(§1) Albiflorin (10 μM) was tested for numerous other potential binding targets by using standard receptor binding procedures. The tested targets included the following receptors: D1, D2, D3, D4, D5, 5-HT1A, 5-HT1B, 5-HT1D, 5-HT2a, 5-HT2C, 5-HT3, 5-HT5A, 5-HT6, 5-HT7, α1A, α1B, α2A, β1, M1, M2, M3, M4, M5, μ, κ, δ, A1, A2A, H1, H2, H3, H4."}, "5-HT5A": {"target": "5-HT5A (Homo sapiens, UniProt P47898)", "sequence (P47898 whole entry)": "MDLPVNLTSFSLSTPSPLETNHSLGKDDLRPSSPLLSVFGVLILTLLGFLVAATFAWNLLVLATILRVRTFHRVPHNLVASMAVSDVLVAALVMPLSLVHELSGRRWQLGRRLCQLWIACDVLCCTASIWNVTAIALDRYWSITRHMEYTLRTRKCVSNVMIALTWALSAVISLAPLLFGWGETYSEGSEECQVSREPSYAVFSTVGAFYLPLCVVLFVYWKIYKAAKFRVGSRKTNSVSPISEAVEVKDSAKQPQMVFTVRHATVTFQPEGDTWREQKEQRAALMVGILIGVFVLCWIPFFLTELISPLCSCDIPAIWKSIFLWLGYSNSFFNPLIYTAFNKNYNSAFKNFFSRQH", "assay": "CNS receptor binding, 5-HT5A", "settings": "HEK293 cell line, [3H]-LSD(1)", "method": "as §1"}, "hSERT [1]": {"target": "T1, hSERT (Homo sapiens, UniProt P31645)", "T1 construct": "expressed in transfected cells", "T1 sequence (P31645 whole entry)": "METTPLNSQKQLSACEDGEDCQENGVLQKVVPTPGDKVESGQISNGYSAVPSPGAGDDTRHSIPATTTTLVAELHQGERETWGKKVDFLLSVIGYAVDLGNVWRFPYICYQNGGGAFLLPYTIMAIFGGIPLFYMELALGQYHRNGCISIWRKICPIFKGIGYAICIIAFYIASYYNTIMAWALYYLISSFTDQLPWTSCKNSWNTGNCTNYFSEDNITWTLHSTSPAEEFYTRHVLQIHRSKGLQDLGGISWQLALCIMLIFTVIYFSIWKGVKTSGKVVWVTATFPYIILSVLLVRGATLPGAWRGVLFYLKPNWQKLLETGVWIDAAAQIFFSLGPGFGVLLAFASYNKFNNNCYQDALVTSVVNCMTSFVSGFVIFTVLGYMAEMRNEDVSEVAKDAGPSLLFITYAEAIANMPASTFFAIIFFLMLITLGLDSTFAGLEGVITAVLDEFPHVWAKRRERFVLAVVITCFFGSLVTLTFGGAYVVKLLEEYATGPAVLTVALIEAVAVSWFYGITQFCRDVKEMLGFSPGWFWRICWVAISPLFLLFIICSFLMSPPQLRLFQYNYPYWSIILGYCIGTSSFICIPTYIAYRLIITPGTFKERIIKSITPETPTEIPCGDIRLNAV", "assay_type": "binding", "method": "Membranes were prepared from HEK293 cells stably expressing hSERT, hNET, or hDAT as described previously. Briefly, [^3H]-citalopram (1 nM), [^3H]-nisoxetine (2 nM), or [^3H]-WIN35,428 (2 nM) was used to label human 5-HT, NE, or DA transporters, respectively.\n(§2) All data for inhibition curves were analysed by nonlinear regression using Prism software (GraphPad Software Inc., San Diego, CA) to determine IC50 values. For the microdialysis experiments, two-way repeated-measures ANOVA followed by Tukey’s test was used to compare the percentage increase over baseline between groups, time and treatment as independent factors, and time as the repeated factor."}, "hDAT": {"target": "T2, hDAT (Homo sapiens, UniProt Q01959)", "T2 construct": "expressed in transfected cells", "assay_type": "cell-based", "settings": "HEK293 cell line, read-out: IC50 values, uptake of [3H]-DA (DAT)", "method": "(§3) The uptake of 5-HT, NE and DA into HEK293 cells stably expressing human transporters was determined using methods previously described with slight modifications. Briefly, the culture medium was removed from cells, and the cells were washed once with phosphate-buffered saline. Krebs-Ringers-HEPES (KRH) assay buffer (100 μL/well, containing 120 mM NaCl, 4.7 mM KCl, 2.2 mM CaCl2, 1.2 mM MgSO4, 1.2 mM […], 10 mM HEPES, pH 7.4) was then added. Various concentrations of drugs were administered to cells in a 24-well plate. The uptake was initiated by the addition of [^3H]-5-HT (50 nM), [^3H]-NE (80 nM), or [^3H]-DA (50 nM). Uptake was terminated by five washes using cold KRH assay buffer after 10-min incubation at 37 °C. The cells were solubilised using 400 μL of scintillation fluid and counted using a Packard Top Count scintillation counter.\nas §2"}, "hSERT [2]": {"target": "T1, hSERT", "assay_type": "cell-based", "settings": "HEK293 cell line, read-out: IC50 values, uptake of [3H]-5-HT (SERT)", "method": "as §3, §2"}, "M3": {"target": "M3 (Homo sapiens, UniProt P20309)", "sequence (P20309 whole entry)": "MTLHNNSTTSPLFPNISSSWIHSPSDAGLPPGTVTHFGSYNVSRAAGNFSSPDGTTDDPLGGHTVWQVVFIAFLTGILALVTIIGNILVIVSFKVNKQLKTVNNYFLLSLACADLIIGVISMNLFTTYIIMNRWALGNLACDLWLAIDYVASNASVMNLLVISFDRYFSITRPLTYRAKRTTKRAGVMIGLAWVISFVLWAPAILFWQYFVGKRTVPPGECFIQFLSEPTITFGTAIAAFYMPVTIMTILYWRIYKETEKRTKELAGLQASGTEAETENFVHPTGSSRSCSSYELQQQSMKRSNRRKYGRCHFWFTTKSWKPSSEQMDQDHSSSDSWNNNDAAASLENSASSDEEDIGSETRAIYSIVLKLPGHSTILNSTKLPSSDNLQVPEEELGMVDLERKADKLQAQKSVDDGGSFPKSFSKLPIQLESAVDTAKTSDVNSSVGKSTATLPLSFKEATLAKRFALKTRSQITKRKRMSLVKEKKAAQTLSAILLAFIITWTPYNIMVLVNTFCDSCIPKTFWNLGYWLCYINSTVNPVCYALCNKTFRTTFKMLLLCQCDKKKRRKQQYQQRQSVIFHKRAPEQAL", "assay": "CNS receptor binding, muscarinic M3", "settings": "CHO cell line, [3H]-NMS(1)", "method": "as §1"}, "M2": {"target": "M2 (Homo sapiens, UniProt P08172)", "sequence (P08172 whole entry)": "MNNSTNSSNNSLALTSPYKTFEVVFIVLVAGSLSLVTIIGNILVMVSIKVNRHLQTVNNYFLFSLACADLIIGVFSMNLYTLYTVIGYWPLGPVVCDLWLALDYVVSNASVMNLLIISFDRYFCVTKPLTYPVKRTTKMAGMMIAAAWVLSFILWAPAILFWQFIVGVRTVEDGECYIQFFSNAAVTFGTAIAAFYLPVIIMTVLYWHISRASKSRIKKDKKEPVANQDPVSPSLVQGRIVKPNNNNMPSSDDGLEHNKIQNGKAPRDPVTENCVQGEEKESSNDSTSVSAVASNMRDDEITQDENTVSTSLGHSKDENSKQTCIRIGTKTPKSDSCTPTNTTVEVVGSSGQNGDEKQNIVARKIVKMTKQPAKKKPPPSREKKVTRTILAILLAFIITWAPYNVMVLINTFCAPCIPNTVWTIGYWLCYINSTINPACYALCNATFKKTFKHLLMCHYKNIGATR", "assay": "CNS receptor binding, muscarinic M2", "settings": "HEK293 cell line, [3H]-NMS(1)", "method": "as §1"}, "D3": {"target": "T3, D3 (Homo sapiens, UniProt P35462)", "T3 construct": "expressed in transfected cells; host or cells: CHO cell lines", "assay": "CNS receptor binding, dopamine D3", "settings": "CHO cell lines, [3H]-spiperone(1), read-out: IC50 values for albiflorin", "method": "as §1"}, "κ": {"target": "κ (Homo sapiens, UniProt P41145)", "sequence (P41145 whole entry)": "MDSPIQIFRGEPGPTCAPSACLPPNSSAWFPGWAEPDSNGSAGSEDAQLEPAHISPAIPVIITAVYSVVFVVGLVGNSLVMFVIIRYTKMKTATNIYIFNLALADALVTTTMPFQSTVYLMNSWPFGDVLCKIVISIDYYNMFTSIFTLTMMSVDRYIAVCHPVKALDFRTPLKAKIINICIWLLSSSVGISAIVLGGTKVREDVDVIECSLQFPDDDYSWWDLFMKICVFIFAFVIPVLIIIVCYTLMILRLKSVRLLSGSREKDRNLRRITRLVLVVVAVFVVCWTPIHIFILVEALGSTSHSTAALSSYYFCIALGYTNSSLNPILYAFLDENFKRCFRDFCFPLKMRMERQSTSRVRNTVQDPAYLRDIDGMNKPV", "assay": "CNS receptor binding, opioid κ", "settings": "CHO cell line, [3H]-dipnorphine(1)", "method": "as §1"}, "M5": {"target": "M5 (Homo sapiens, UniProt P08912)", "sequence (P08912 whole entry)": "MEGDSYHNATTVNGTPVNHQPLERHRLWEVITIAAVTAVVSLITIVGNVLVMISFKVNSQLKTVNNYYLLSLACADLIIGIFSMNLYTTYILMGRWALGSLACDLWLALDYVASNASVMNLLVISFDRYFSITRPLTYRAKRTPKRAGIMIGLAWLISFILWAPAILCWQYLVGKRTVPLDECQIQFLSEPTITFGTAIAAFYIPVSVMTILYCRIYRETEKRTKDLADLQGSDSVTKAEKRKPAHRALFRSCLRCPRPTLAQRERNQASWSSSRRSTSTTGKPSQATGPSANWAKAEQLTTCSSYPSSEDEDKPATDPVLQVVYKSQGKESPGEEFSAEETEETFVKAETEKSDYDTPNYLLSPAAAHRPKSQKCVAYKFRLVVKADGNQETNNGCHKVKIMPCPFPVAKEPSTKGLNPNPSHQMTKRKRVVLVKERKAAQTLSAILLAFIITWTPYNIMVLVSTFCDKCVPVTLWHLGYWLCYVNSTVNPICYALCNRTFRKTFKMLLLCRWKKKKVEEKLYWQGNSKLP", "assay": "CNS receptor binding, muscarinic M5", "settings": "CHO cell line, [3H]-NMS(1)", "method": "as §1"}, "5-HT6": {"target": "5-HT6 (Homo sapiens, UniProt P50406)", "sequence (P50406 whole entry)": "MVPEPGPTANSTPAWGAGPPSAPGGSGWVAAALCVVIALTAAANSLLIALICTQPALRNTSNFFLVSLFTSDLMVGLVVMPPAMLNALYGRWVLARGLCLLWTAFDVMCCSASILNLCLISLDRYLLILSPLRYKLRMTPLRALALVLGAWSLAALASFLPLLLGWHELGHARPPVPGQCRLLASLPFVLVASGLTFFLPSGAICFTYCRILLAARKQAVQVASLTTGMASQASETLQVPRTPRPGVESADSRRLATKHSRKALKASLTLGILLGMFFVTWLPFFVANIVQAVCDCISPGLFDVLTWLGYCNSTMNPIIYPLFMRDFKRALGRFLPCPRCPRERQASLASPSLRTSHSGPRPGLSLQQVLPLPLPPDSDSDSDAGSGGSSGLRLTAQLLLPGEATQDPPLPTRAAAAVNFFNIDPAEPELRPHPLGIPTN", "assay": "CNS receptor binding, 5-HT6", "settings": "HEK293 cell line, [3H]-LSD(1)", "method": "as §1"}, "D5": {"target": "D5 (Homo sapiens, UniProt P21918)", "sequence (P21918 whole entry)": "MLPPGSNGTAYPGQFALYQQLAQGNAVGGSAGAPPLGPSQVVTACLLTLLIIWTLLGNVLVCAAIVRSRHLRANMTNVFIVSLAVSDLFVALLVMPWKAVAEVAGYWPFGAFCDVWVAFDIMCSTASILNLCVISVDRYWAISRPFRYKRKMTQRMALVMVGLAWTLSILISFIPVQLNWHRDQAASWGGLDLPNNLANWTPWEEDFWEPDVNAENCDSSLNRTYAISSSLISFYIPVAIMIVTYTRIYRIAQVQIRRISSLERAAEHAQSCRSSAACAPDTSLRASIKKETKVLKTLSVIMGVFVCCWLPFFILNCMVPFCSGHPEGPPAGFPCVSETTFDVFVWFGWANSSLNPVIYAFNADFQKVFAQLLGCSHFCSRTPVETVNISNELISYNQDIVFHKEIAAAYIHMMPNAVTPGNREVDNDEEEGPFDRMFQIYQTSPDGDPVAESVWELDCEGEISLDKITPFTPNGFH", "assay": "CNS receptor binding, dopamine D5", "settings": "HEK293 cell line, [3H]-SCH23390(1)", "method": "as §1"}, "5-HT1D": {"target": "5-HT1D (Homo sapiens, UniProt P28221)", "sequence (P28221 whole entry)": "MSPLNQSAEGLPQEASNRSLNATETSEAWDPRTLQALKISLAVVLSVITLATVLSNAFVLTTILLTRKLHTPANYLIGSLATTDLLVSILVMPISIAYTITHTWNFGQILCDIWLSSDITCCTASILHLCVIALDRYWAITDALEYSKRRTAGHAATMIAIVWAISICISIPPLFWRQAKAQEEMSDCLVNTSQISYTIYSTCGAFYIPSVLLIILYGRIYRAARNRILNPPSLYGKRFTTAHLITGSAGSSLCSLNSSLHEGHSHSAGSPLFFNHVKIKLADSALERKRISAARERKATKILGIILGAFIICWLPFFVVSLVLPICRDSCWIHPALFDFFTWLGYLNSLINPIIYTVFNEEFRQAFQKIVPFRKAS", "assay": "CNS receptor binding, 5-HT1D", "settings": "HEK293 cell line, [3H]-LSD(10)", "method": "as §1"}, "H2": {"target": "H2 (Homo sapiens, UniProt P25021)", "sequence (P25021 whole entry)": "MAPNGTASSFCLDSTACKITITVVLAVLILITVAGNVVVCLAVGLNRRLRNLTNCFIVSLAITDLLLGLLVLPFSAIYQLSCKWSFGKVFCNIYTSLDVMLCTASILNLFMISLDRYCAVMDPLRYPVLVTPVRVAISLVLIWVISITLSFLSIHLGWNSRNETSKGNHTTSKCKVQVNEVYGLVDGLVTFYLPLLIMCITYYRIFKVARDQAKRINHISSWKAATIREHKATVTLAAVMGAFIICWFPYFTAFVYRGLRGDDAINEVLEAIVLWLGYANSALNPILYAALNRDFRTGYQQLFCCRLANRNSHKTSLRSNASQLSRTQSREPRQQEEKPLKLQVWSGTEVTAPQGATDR", "assay": "CNS receptor binding, histamine H2", "settings": "HEK293 cell line, [3H]-tiotodine(1)", "method": "as §1"}, "[3]": {"settings": "read-out: IC50 values for albiflorin"}}, "data": [{"smiles": "C[C@]12C[C@@H](O)[C@@H]3C[C@@]1(O[C@@H]1O[C@H](CO)[C@@H](O)[C@H](O)[C@H]1O)[C@@]3(COC(=O)c1ccccc1)C(=O)O2", "note": "[albiflorin, Albiflorin]", "values": [{"measurement": "% Inhibition of binding at 10 μM albiflorin", "setting": "μ", "value": 23.66, "unit": "%"}, {"measurement": "IC50", "setting": "μ; [3]", "value": "> 10", "unit": "µM"}, {"measurement": "% Inhibition of binding at 10 μM albiflorin", "setting": "5-HT5A", "value": 20.11, "unit": "%"}, {"measurement": "IC50", "setting": "5-HT5A; [3]", "value": "> 10", "unit": "µM"}, {"measurement": "Ki", "setting": "hSERT [1]; Human, [3H]-citalopram, HEK293 cell line, read-out: Ki values, SERT binding", "value": "6.45 ± 0.48", "unit": "nM"}, {"measurement": "affinity relative to fluoxetine in human SERT binding assay", "setting": "hSERT [1]; albiflorin vs fluoxetine", "value": 17, "unit": "fold"}, {"measurement": "IC50", "setting": "hDAT", "value": "2240 ± 25", "unit": "nM"}, {"measurement": "IC50", "setting": "hSERT [2]", "value": "2.36 ± 0.74", "unit": "nM"}, {"measurement": "% Inhibition of binding at 10 μM albiflorin", "setting": "M3", "value": 25.66, "unit": "%"}, {"measurement": "IC50", "setting": "M3; [3]", "value": "> 10", "unit": "µM"}, {"measurement": "% Inhibition of binding at 10 μM albiflorin", "setting": "M2", "value": 13.33, "unit": "%"}, {"measurement": "IC50", "setting": "M2; [3]", "value": "> 10", "unit": "µM"}, {"measurement": "IC50", "setting": "D3", "value": "3.66 ± 0.212", "unit": "µM"}, {"measurement": "% Inhibition of binding at 10 μM albiflorin", "setting": "κ", "value": 32.33, "unit": "%"}, {"measurement": "IC50", "setting": "κ; [3]", "value": "> 10", "unit": "µM"}, {"measurement": "% Inhibition of binding at 10 μM albiflorin", "setting": "M5", "value": 20.11, "unit": "%"}, {"measurement": "IC50", "setting": "M5; [3]", "value": "> 10", "unit": "µM"}, {"measurement": "% Inhibition of binding at 10 μM albiflorin", "setting": "5-HT6", "value": 22.36, "unit": "%"}, {"measurement": "IC50", "setting": "5-HT6; [3]", "value": "> 10", "unit": "µM"}, {"measurement": "% Inhibition of binding at 10 μM albiflorin", "setting": "D5", "value": 32.50, "unit": "%"}, {"measurement": "IC50", "setting": "D5; [3]", "value": "> 10", "unit": "µM"}, {"measurement": "% Inhibition of binding at 10 μM albiflorin", "setting": "5-HT1D", "value": 22.36, "unit": "%"}, {"measurement": "IC50", "setting": "5-HT1D; [3]", "value": "> 10", "unit": "µM"}, {"measurement": "% Inhibition of binding at 10 μM albiflorin", "setting": "H2", "value": 68.99, "unit": "%"}, {"measurement": "IC50", "setting": "H2; [3]", "value": "4 ± 0.201", "unit": "µM"}]}]}
